US10858305B2, “Perillyl alcohol-3-bromopyruvate conjugate and methods of treating cancer” (NeOnc Technologies, Inc., priority 2016, dated 2020)
pIC50: −log10 of the molar value. “Also recorded” adds a separate entry of the source.

Tests used:
Assay type in all cases: cell-based, human
[1] = system: HCT116 colon cancer cells; assay: Cellular ATP content assay; settings: 100 nM rotenone in glucose-free medium
Method: HCT116 cells were treated with 40 μM 3-BP or NEO218. As a point of reference, cells were also exposed to 100 nM rotenone in glucose-free medium. ATP levels were determined after 3 and 6 hours. ATP levels in untreated cells were set at 100% (corresponding to 26.6 nmol per one million cells).
HCT116 colon cancer cells were treated cells with: NEO218, 3-BP; rotenone (a mitochondrial poison that blocks the respiratory chain); medium without glucose (“no gluc”; in order to shut down glycolysis); and, rotenone in combination with absent glucose (to cease all intracellular ATP production). After 3 hours of treatment, a commercially available ATP detection assay kit was employed to determine the relative levels of ATP present.
ATP content of cells was measured with the ATP Colorimetric/Fluorometric Assay kit (Biovision Inc., Milpitas, Calif.), which utilizes the phosphorylation of glycerol to generate a product that is quantified by colorimetry at 570 nm. Approximately 1×10^6 cells were cultured in 10-cm tissue culture plates, exposed to drug treatment for various time periods, and then processed as per manufacturer's instructions. All ATP levels were normalized to untreated controls and presented as percentage of controls.

[2] = system: tumor cells (two cell lines, incl. MCF7/Dox); assay: Colony formation assay (CFA), 24 hours drug exposure (FIG. 5); settings: Homo sapiens, MCF7-DOX, colonies after ten to fifteen days, read-out: IC50 (cell survival and colony formation)
Method: The effect of NEO218 on tumor cell survival and colony formation relative to 3-BP, POH and 3-BP+POH was evaluated via the colony formation assay (CFA). Six hundred cells per culture well were seeded and exposed to increasing concentrations of NEO218, 3-BP, a mix of 3-BP+POH, or POH alone. After 24 hours, all drugs were removed from cells and fresh culture medium was added. Ten to fifteen days later, the surviving cells had formed colonies of descendants, which were stained and counted.

[3] = system: tumor cell lines; assay: cells; settings: Homo sapiens; MTT, 24 hours; POH alone; read-out: concentration required to reach IC50
Method: Different tumor cell lines were treated with 3-BP mixed with POH, and the effects were compared to the effects of NEO218, as well as to 3-BP alone. The cells were treated for 24 hours, and then the MTT assay was conducted to measure cell viability.

[4] = system: all cell types (breast, brain, ovary, colon cancer cell lines); assay: Summary of cytotoxicity over MTT, LDH and colony formation assays (FIGS. 2-5); settings: all cells
Text: The tumor cell-killing potency of NEO218 was characterized by in vitro, short-term MTT assays (measuring viability of cells via determination of metabolic activity), LDH assays (measuring the release of lactate dehydrogenase as an indicator of leaky cell membranes, which are indicative of dying cells), and colony-formation assays (CFA, which determine long-term survival of drug-treated cells and their ability to spawn a colony of descendants). Several established cell lines derived from cancers of the breast were used as target cells (including MDA-MB-231; MDA-MB-468; T47D; MCF7; MCF7/Dox; BTB12), brain (T98G; U251), ovary (A2780), and colon (HCT116). In all cases, cells in culture were exposed to increasing concentrations of agents for 24 or 48 hours.

[5] = system: MDA-MB-231 cells; assay: MTT short-term toxicity assay in MDA-MB-231 cells; settings: MDA-MB-231
Method: (§1) (A) MTT assay was performed after 24 hours. […] (B) LDH assay was performed after […]. LDH release by untreated cells was set to 1. Relative fold increase is shown (n=3).
(§2) (A) MTT assay was performed after 24 hours. Viability of untreated cells was set at 100% (data points are averages of 2 experiments). (B) LDH assay was performed after 24 hours. LDH release by untreated cells was set to 1. Relative fold increase is shown (averages from 2 experiments). (C) Representative photos show typical colony formation after initial 48 hours of drug treatment. In all cases of combination treatment with 3-BP mixed with […] (3-BP+POH), the indicated concentrations refer to each individual drugs, i.e., 100 μM 3-BP+POH means that 100 μM 3-BP was combined with 100 μM POH.
Methylthiazoletetrazolium (MTT) assays were performed as described earlier.

[6] = system: MDA-MB-231 breast cancer cells; assay: LDH release assay in MDA-MB-231 / breast cancer cell lines; settings: breast cancer cell lines, 24 hours
Method: as §1, §2
The capacity for rapid cell killing by NEO218 relative to 3-BP, POH and 3-BP+POH was evaluated via LDH assay, where LDH release is used as a proxy for cell death.
In FIG. 4, Panels (a) and (b), show the results of treating breast cancer cell lines with increasing concentrations of NEO218, 3-BP, or 3-BP mixed with POH. […] In all cases a-d, the release of LDH (as a marker of cell death) was measured after 24 hours.
Depending on the cell line, 2000 to 4000 cells per well were seeded in a volume of 50 μL into a 96-well plate. The next day, drugs ere added in an additional 50 μL of medium. At different time points (usually after 24 hours of incubation), 50 μL medium was removed and processed with the LDH Cytotoxicity Assay Kit (Thermo Fisher Scientific, Waltham, Mass.) according to the manufacturer's instructions. This kit measures extracellular LDH in culture medium using an enzymatic reaction that results in a red formazan product, which can be measured spectrophotometrically. The absorbance was measured at 490 and 680 nm. All LDH levels were normalized to untreated controls and presented as fold change of the controls.

[7] = system: HCT116 cells; assay: FACS analysis for annexin V and propidium iodide; settings: 2, 4 or 8 hours of treatment
Method: (§3) (A) FACS analysis of HCT116 cells after treatment for 2, 4, or 8 hours with vehicle, 30 μM 3-BP, 30 μM NEO218, or 1 μM staurosporine (STS). […] (B) Western blot analysis of apoptotic markers. In the top section, MDA-MB-231 cells were treated with 30 μM NEO218 or 1 μM STS for various time points. In the lower section, HCT116 cells were treated with the indicated concentrations of 3-BP, NEO218, or STS for 16 hours. In all cases cell lysates were prepared and analyzed for the well-established apoptotic markers cleaved PARP, cleaved (i.e., activated) caspase 7 (cl. C-7), and phosphorylated (i.e., active) H2AX. Actin was used as a loading control. (C) HCT116 cells were pretreated with 50 μM Z-VAD-FMK for one hour, followed by the addition of increasing concentrations of 3-BP or NEO218. Cell viability was determined by MTT assay 24 hours later. Data points are averages from n=3.
In the absence of indications that apoptotic mechanisms played a significant role in cell death induced by NEO218, necrosis was investigated as a potential key mechanism. The distinction between apoptotic and necrotic cell death was made by measuring annexin V staining (a marker of apoptosis) and PI (propidium iodide) staining (a marker of necrosis) of drug-treated cells, in comparison to non-drug-treated cells (as a control). Measurements of annexin V and PI were done by FACS analysis after 2, 4, or 8 hours of treatment. Cells were treated with NEO218, 3-BP, and staurosporine (individually), and incorporation of propidium iodide (PI, a marker of necrotic cell death) or annexin V (a marker for apoptosis) was determined by fluorescence-activated cell sorting.
The results are organized in FIG. 8 as follows: no treatment (top row), 3-BP (second row), NEO218 (third row), and staurosporine (bottom row).
Characterization of cell death was performed by flow cytometry using the Alexa Fluor® 488 Annexin V/Dead Cell Apoptosis kit (Thermo Fisher Scientific). This kit contains recombinant, green fluorophore-conjugated annexin V, which reacts with apoptotic cells, and DNA-binding, red-fluorescent propidium iodide (PI), which is impermeant to live and apoptotic cells, but stains dead cells. The different cell populations can be distinguished by green fluorescence (apoptotic cells), red fluorescence (necrotic/dead cells), and no fluorescence (live cells) during flow cytometry with 488 nm laser excitation. Control or drug-treated cells were processed as per manufacturer's instructions, followed by flow cytometry of 10,000 cells per point with an LSR II (BD Biosciences, San Jose, Calif.) at the USC Flow Cytometry Core Facility.

[8] = system: cleaved caspase 7, cleaved PARP, γ-H2AX in MCF7, MDA-MB-231 and HCT116 cells; assay: Western blot for apoptosis markers; settings: STS as positive control
Method: as §3
The capacity for NEO218 to induce apoptosis was evaluated in a series of experiments. Three different cell lines were treated 3-BP and NEO218. Drug-treated cells were harvested, and cellular lysates were analyzed by Western blot for the presence of the three well-established markers of apoptosis: • cleaved caspase 7 (cl. C7); • cleaved (cl.) vs. full-length (f.l.) PARP; and, • induction of γ-H2AX (which indicates DNA cleavage).
The appearance of cl. C7 and cl. PARP is indicative of ongoing apoptotic processes. In all cases, lysates were also probed for the presence of actin as a control.
Two breast cancer cell lines (MCF7 and MDA-MB-231) and one colon cancer cell line (HCT116) were treated with increasing concentrations of NEO218 or 3-BP. As a control, they were also treated with staurosporine (STS), a known potent inducer of apoptosis. Western blot analyses for the presence of apoptosis markers are shown in the left panels of FIG. 6.
Total cell lysates were analyzed by Western blot analysis as described earlier. Primary antibodies against cleaved caspase 7 and PARP were obtained from Cell Signaling Technology (Danvers, Mass.), and antibodies against actin (C-11) and MCT1 (H-1) were obtained from Santa Cruz Biotechnology (Santa Cruz, Calif.). All antibodies were used according to the manufacturers' recommendations, except that in the case of MCT1 detection, the boiling step was omitted before loading the samples onto the polyacrylamide gel. All immunoblots were repeated at least once to confirm the results.

C=C(C)[C@H]1Cc2c(ccc3c2O[C@@H]2COc4cc(OC)c(OC)cc4[C@@H]2C3=O)O1 [rotenone]
ATP level ([1]; after six hours): about 10 % of normal | ATP level ([1]; within the first 3 hours, untreated = 100%): < 25%

C=C(C)[C@@H]1CC=C(CO)CC1 [POH, perillyl alcohol]
pIC50 [2]: < 3.00 | pIC50 [3]: ≤ 3.30 | IC50 of POH alone [4]: several hundred | IC50 of POH alone [5]: approaching the millimolar range | toxic potency by LDH release [6]: requires fairly high concentrations to achieve cell killing

CN[C@@H]1C[C@H]2O[C@@](C)([C@@H]1OC)n1c3ccccc3c3c4c(c5c6ccccc6n2c5c31)C(=O)NC4 [staurosporine]
incorporation of PI (necrosis) versus annexin V (apoptosis) [7]: incorporation of annexin V, but very little PI | incorporation of PI (necrosis) versus annexin V (apoptosis) ([7]; listed as STS): moved from the lower left quadrant (=fully viable cells) to the lower right quadrant (=annexin V-positive cells) | induction of apoptosis markers (cleaved PARP, cleaved caspase 7, γ-H2AX) [8]: striking induction of all 3 markers of apoptosis | induction of apoptosis markers (cleaved PARP, cleaved caspase 7, γ-H2AX) ([8]; listed as STS): triggered pronounced cleavage of PARP, activation of C-7; also recorded: prominent appearance of apoptotic markers
